# Paper PMC3548977 (Cancer cell, 2013)
# pIC50: −log10 of the molar value.
# Columns and labels:
# Gli1 mRNA [1] = test: Gli1 mRNA expression in treated SMO^WT MB allografts; type: in vivo, mouse; settings: treated 3 days, harvested 4 h after last dose
# [2] = system: NVP-LDE225 resistant SMO mutants; type: cell-based, mouse; settings: itraconazole 1.5 μM, mutant of Figure 7D
# [3] = system: Ptch^+/−; p53^−/− mouse MB allograft (SMO^WT); type: in vivo; settings: day 9 of treatment; ATO 7.5 mg/kg IP qd, itraconazole 75 mg/kg PO bid
# [4] = system: Ptch^+/−; p53^−/− MB tumorspheres expressing endogenous SMO^WT; test: MB tumorsphere proliferation; type: cell-based; settings: Mus musculus, 96 h, read-out: IC50 anti-proliferative activity
# murine SMO^E522K = murine SMO^E522K (Mus musculus, UniProt P56726, E522K); test: 8×-GLI-luciferase reporter in SHHN stimulated Smo−/− MEFs expressing SMO^E522K; settings: GDC-0449 0.5 μM, itraconazole 1.5 μM
# Sequence of murine SMO^E522K (P56726 33-793 E522K): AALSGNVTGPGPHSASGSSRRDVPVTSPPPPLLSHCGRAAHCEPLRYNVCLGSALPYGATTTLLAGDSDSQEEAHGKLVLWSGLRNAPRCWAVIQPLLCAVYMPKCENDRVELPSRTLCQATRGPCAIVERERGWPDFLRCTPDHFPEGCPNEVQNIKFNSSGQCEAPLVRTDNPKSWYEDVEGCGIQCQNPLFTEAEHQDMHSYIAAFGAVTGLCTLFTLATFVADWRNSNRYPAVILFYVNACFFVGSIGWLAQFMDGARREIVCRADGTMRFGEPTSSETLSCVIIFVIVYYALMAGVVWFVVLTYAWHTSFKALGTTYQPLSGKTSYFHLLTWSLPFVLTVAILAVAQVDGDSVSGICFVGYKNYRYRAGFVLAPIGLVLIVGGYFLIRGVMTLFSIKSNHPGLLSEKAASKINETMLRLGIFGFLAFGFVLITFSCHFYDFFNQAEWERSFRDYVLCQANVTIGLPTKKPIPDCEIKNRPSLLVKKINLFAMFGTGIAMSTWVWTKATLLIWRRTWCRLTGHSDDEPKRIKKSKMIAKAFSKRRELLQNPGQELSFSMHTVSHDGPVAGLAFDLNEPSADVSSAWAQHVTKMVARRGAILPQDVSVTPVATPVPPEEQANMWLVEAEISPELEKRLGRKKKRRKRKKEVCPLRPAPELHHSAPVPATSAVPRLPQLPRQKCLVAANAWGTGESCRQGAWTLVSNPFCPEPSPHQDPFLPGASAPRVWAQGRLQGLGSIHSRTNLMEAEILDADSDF
# Gli1 mRNA [5] = test: Gli1 mRNA transcription in MB tumorspheres; type: cell-based; settings: Mus musculus, 24 h, read-out: IC50 for Gli1 mRNA transcription
# P-glycoprotein (PGP) = settings: ref Wang et al., 2002; cited from earlier work
# SMO^WT = SMO^WT (Mus musculus, UniProt P56726); test: 8×-GLI-luciferase reporter in SHHN stimulated Smo−/− MEFs expressing SMO^WT; type: cell-based
# Sequence of SMO^WT (P56726 33-793): as the sequence (P56726 33-793 E522K) above, with K490E counted along it
compound,measurement,setting,value
CCC(C)n1ncn(-c2ccc(N3CCN(c4ccc(OCC5COC(Cn6cncn6)(c6ccc(Cl)cc6Cl)O5)cc4)CC3)cc2)c1=O (stereo not drawn) [itraconazole],Inhibition of tumor Gli1 mRNA expression compared to vehicle-treated tumors,Gli1 mRNA [1],55%
same,Inhibition of mutant activity,[2],~ 60%
same,Tumor growth inhibition compared to vehicle-treated tumors,[3],96%
same,pIC50,[4],7.26
same,Inhibition of SMO^E522K activity,murine SMO^E522K,almost completely inhibited
same,pIC50,Gli1 mRNA [5],~7.00
same,Inhibition of PGP,P-glycoprotein (PGP),potent inhibitor
same,pIC50,SMO^WT,~6.22
same,Inhibition of relative Hh pathway activity (8×-GLI-luciferase reporter),SMO^WT; SHHN stimulated Smo−/− MEFs expressing SMO^WT,full antagonist
